In patent US20180162844A1, “CYCLOPROPANE DERIVATIVE AND DRUG CONTAINING SAME” (EA PHARMA CO., LTD., priority 2015, published 2018):

biological target: T1, human TRPA1 (Homo sapiens, UniProt O75762); assay: Measurement of TRPA1 antagonist activity (intracellular calcium increase, allylisothiocyanate stimulation, 293T cells transfected with human TRPA1 expression plasmid); format: cell-based; settings: Comparative Examples (Table 8-2); 293T cells expressing human TRPA1, allylisothiocyanate stimulation, FLIPR Calcium4, test substance added 10 min before AITC; read-out: hTRPA1 IC50
T1 construct: full-length human TRPA1 gene was amplified; expressed in transfected cells; host or cells: Human embryonic kidney-derived 293T cells, transient transfection with pcDNA3.1/zeo(+) human TRPA1 expression plasmid
Method: Experimental Example 1: Measurement of TRPA1 antagonist Activity
Human TRPA1 Expression Plasmid
Using cDNA encoding human TRPA1 (GenBank accession No. NM_007332) (manufactured by Kazusa DNA Research Institute, item No.: FHC07217) as a template, primer 1 (SEQ ID NO: 1) and primer 2 (SEQ ID NO: 2), PCR by PfuUltra High-Fidelity DNA Polymerase (Stratagene) was performed, and full-length human TRPA1 gene was amplified.
A recognition site (underlined) of restriction enzyme HindIII was added to the 5′ end of human TRPA1 gene, and XbaI site (underlined) was added to the 3′ end of human TRPA1 gene, and GTT of the template sequence was changed to termination codon TAG (bold). The obtained double stranded DNA was enzyme-digested with HindIII and XbaI, and introduced into a multicloning site of expression plasmid pcDNA3.1/zeo(+) (manufactured by Invitrogen) to give a human TRPA1 expression plasmid.
Human embryonic kidney-derived 293T cells were cultured in Dulbecco's Modified Eagle Medium containing 10% fetal bovine serum, 10 unit penicillin, and 10 μg streptomycin. One day before assay, 3×10^6 of 293T cells were plated on a petri dish having a diameter of 10 cm, and cultured in a CO2 incubator for 24 hr. OPTI-MEM I Reduced Serum Media (Invitrogen). (600 μL), Mirus TransIT-293 (Mirus Bio) (18 μL), and human TRPA1 expression plasmid (6 μg) were mixed, the total amount of the mixture was added to the cells on the petri dish to allow for gene transfer. The cells were recovered about for 8 hr later, plated on a poly-D-lysine coated 384 well black/clear bottom plate at 12,000 cells/well, and cultured overnight.
Measurement of Intracellular Calcium Increase
The medium was removed from the 384 well plate, calcium indicator (Molecular Device, trade name: FLIPR Calcium4 Assay Kit) dissolved in HBSS (Thermo Fisher Scientific) (pH 7.2) containing 20 mM HEPES was added (38 μL/well), and the cells were stained in a CO2 incubator for 1 hr. The 384 well plate was stood at room temperature for not less than 15 min, set on FDSS7000 (Hamamatsu Photonics K.K.), and a test substance solution was added at 10 μL/well. After 10 min, allylisothiocyanate solution (12 μL/well) was added, the relative fluorescence intensity was measured for 5 min after addition of the allylisothiocyanate solution.
Preparation of Test Substance Solution and Allylisothiocyanate Solution
A test substance solution was prepared to have a composition of HBSS (Thermo Fisher Scientific) (pH 7.2) containing 0.48% dimethyl sulfoxide, a test substance at 4.8-fold concentration of the evaluation concentration, 0.1% bovine serum albumin and 20 mM HEPES. An allylisothiocyanate solution was prepared to have a composition of HBSS (Thermo Fisher Scientific) (pH 7.2) containing 0.1% dimethyl sulfoxide, 100 μM allylisothiocyanate, 0.1% bovine serum albumin and 20 mM HEPES.
Calculation of Antagonist Activity
The activity rate of a test substance at each concentration was calculated, wherein the relative fluorescence intensity change of a well free of a test substance and containing allylisothiocyanate is 100% activity rate, and the relative fluorescence intensity change of a well free of a test substance and allylisothiocyanate is 0% activity rate. The inhibitory rate of a test substance at each concentration was calculated by subtracting the activity rate of the test substance from 100% activity rate, and the concentration of a test substance showing 50% inhibitory rate was calculated as IC50 from the sigmoid approximate curve by XLFit (idbs).

T1 sequence (O75762 whole entry): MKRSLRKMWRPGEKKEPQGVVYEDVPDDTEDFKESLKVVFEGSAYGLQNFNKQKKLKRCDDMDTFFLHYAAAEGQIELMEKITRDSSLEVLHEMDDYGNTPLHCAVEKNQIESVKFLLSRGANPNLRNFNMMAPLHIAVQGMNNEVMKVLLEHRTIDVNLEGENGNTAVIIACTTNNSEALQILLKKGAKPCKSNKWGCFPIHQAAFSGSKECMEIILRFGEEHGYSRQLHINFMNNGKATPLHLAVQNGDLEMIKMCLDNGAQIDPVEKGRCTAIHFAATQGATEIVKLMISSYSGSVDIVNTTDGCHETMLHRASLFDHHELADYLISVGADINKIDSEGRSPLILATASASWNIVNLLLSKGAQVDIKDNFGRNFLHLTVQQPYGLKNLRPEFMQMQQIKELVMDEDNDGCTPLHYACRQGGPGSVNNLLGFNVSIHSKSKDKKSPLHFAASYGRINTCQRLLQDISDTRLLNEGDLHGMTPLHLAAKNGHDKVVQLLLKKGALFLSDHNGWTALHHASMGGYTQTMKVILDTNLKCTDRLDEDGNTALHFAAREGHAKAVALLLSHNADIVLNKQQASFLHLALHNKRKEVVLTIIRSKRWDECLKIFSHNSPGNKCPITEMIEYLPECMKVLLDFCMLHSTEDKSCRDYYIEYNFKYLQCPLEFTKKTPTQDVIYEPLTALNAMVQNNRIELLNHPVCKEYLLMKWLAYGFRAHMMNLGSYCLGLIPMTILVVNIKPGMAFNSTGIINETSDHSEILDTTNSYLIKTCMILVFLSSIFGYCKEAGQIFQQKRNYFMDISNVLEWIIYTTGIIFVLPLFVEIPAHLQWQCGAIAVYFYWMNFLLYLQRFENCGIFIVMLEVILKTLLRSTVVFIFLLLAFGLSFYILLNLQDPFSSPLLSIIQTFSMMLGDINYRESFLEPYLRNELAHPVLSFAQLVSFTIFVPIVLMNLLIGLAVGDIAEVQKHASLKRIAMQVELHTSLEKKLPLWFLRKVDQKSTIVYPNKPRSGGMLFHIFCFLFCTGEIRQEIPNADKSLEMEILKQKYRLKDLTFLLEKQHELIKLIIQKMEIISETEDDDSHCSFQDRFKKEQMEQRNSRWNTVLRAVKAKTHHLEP

| Structure (SMILES) | IC50 [nM] |
| --- | --- |
| CC(C)N(C1(C(=O)NCc2cc(-c3ccc(C(F)(F)F)nc3)ncn2)CC1)S(=O)(=O)c1ccc(F)cc1 [Comparative Example 1, 1-[(4-fluorophenyl)sulfonyl-isopropyl-amino]-N-[[6-[6-(trifluoromethyl)-3-pyridyl]pyrimidin-4-yl]methyl]cyclopropanecarboxamide, reference compound] | 180 |
| O=C(NCc1cc(-c2ccc(C(F)(F)F)cc2)nc(N2CCCC2)c1)C1(NS(=O)(=O)c2ccc(F)cc2)CC1 [Comparative Example 2, 1-[(4-fluorophenyl)sulfonylamino]-N-[[2-pyrrolidin-1-yl-6-[4-(trifluoromethyl)phenyl]-4-pyridyl]methyl]cyclopropanecarboxamide, reference compound] | > 1000 |
| O=C(NCc1cc(-c2ccc(C(F)(F)F)cc2)nc(N2CCCC2)c1)C1(NS(=O)(=O)c2ccco2)CC1 [Comparative Example 3, 1-(2-furylsulfonylamino)-N-[[2-pyrrolidin-1-yl-6-[4-(trifluoromethyl)phenyl]-4-pyridyl]methyl]cyclopropanecarboxamide, reference compound] | > 1000 |
| O=C(NCc1cc(-c2ccc(C(F)(F)F)cc2)nc(N2CCCC2)c1)C1(NS(=O)(=O)c2ccc(Cl)s2)CC1 [Comparative Example 4, 1-[(5-chloro-2-thienyl)sulfonylamino]-N-[[2-pyrrolidin-1-yl-6-[4-(trifluoromethyl)phenyl]-4-pyridyl]methyl]cyclopropanecarboxamide, reference compound] | > 1000 |

same assay, conditions: Examples (Table 8-1); 293T cells expressing human TRPA1, allylisothiocyanate stimulation, FLIPR Calcium4, test substance added 10 min before AITC; read-out: hTRPA1 IC50

| Structure (SMILES) | IC50 [nM] |
| --- | --- |
| O=C(NCc1cc(-c2ccc(C(F)(F)F)cc2)ncn1)C1(NS(=O)(=O)c2cc3cc(F)ccc3o2)CC1 [Example 1, 1-[(5-fluorobenzofuran-2-yl)sulfonylamino]-N-[[6-[4-(trifluoromethyl)phenyl]pyrimidin-4-yl]methyl]cyclopropanecarboxamide] | 33 |
| O=C(NCc1ccnc(-c2cnc(C(F)(F)F)nc2)c1)C1(NS(=O)(=O)c2cc3cc(F)ccc3o2)CC1 [Example 2, 1-[(5-fluorobenzofuran-2-yl)sulfonylamino]-N-[[2-[2-(trifluoromethyl)pyrimidin-5-yl]-4-pyridyl]methyl]cyclopropane-carboxamide] | 120 |
| O=C(NCc1ccnc(-c2ccc(C(F)(F)F)cc2O)c1)C1(NS(=O)(=O)c2cc3cc(F)ccc3o2)CC1 [Example 3, 1-[(5-fluorobenzofuran-2-yl)sulfonylamino]-N-[[2-[2-hydroxy-4-(trifluoromethyl)phenyl]-4-pyridyl]methyl]cyclopropane-carboxamide] | 72 |
| O=C(NCc1cc(-c2ccc(C(F)(F)F)cn2)ccn1)C1(NS(=O)(=O)c2cc3cc(F)ccc3o2)CC1 [Example 4, 1-[(5-fluorobenzofuran-2-yl)sulfonylamino]-N-[[4-[5-(trifluoromethyl)-2-pyridyl]-2-pyridyl]methyl]cyclopropane-carboxamide] | 22 |
| O=C(NCc1cc(-c2cnc(C(F)(F)F)nc2)ccn1)C1(NS(=O)(=O)c2cc3cc(F)ccc3o2)CC1 [Example 5, 1-[(5-fluorobenzofuran-2-yl)sulfonylamino]-N-[[4-[2-(trifluoromethyl)pyrimidin-5-yl]-2-pyridyl]methyl]cyclopropane-carboxamide] | 260 |
| O=C(NCc1cc(-c2ncc(C(F)(F)F)cn2)ccn1)C1(NS(=O)(=O)c2cc3cc(F)ccc3o2)CC1 [Example 6, 1-[(5-fluorobenzofuran-2-yl)sulfonylamino]-N-[[4-[5-(trifluoromethyl)pyrimidin-2-yl]-2-pyridyl]methyl]cyclopropane-carboxamide] | 230 |
| O=C(NCc1cc(-c2cnc(C(F)(F)F)cn2)ccn1)C1(NS(=O)(=O)c2cc3cc(F)ccc3o2)CC1 [Example 7, 1-[(5-fluorobenzofuran-2-yl)sulfonylamino]-N-[[4-[5-(trifluoromethyl)pyrazin-2-yl]-2-pyridyl]methyl]cyclopropane-carboxamide] | 170 |
